Source: patent publication US9320682B2, “Tooth filling materials and dental varnish for inhibiting the formation of a biofilm of Streptococcus mutans and the production thereof” (VOCO Gmbh, priority 2012, dated 2016)

Experiments:
Type in all cases: cell-based
[1] = test system: Streptococcus mutans UA159; experiment: Biofilm inhibition on hardened tooth filling material test members, LIVE/DEAD BacLight fluorescence (Example 9); settings: for biofilm inhibition (in words): active substance in hardened tooth filling material, carolacton 25 μg/ml, triclosan and chlorohexidine 2500 μg/ml
Protocol: The admixture from example 2 was used as the tooth filling material according to the invention.
(§1) In addition, three tooth filling materials similar to example 2 were prepared, where carolacton was replaced with triclosan in a first comparison admixture, carolacton was replaced with chlorohexidine in a second comparison admixture and carolacton was omitted in a third comparison admixture (control).
(§2) From each of the tooth filling materials produced, by hardening the tooth filling material 10 dental test members were produced with a diameter of 7 mm and a height of 1 mm and adhesively bonded with a small quantity of the tooth filling material in a total of 40 wells of a 96-well microtitration plate of polystyrene (Greiner Bio-One, μ Clear Plate Black, Frickenhausen, Germany).
In a THB nutrition medium, an over-night culture of Streptococcus mutans UA159 was produced under anaerobic conditions. The over-night culture obtained was diluted to an optimum density (at 620 nm; OD620) of from 0.01 to 0.03 with THB (with addition of 0.5% (G/V) of saccharose). Subsequently, 200 μl of the dilute over-night culture was introduced by pipette into the wells of the 96-well microtitration plate provided with the dental test members. The microtitration plate was subsequently incubated for 20 hours at 37° C. under anaerobic conditions in an incubator.
The determination of the biofilm inhibition was carried out with a LIVE/DEAD BacLight kit L13152 (Invitrogen, Molecular Probes, Inc. Eugene, Oreg., USA), taking note of the manufacturer's instructions. The kit comprises two dye solutions, propidium iodide and SYT09 which each discolour nucleic acids. The excesses of the biofilms in the individual wells of the 96-well microtitration plate were removed. In order to remove plankton-like or loosely bonded bacteria, the biofilm was carefully washed with 200 μl of a 0.85% NaCl solution, mixed with 200 μl of a 1:1 admixture of propidium iodide and SYT09 and subsequently left to stand for 15 minutes and at ambient temperature with light being excluded. The measurement of the fluorescence was carried out on a Wallac Victor3™ 1420Multilabel Counter (Perkin-Elmer Life Sciences) provided with detectors and filters for measuring the fluorescence at 630 nm (red) and 535 nm (green). The biofilm inhibition is given in percent as a quotient between the quotient of green and red fluorescence of the sample with the active substance (carolacton, chlorohexidine or triclosan) and the quotient of green and red fluorescence of the sample without any active substance (control).

[2] = test system: Streptococcus mutans UA159; experiment: Colony-forming units of Streptococcus mutans biofilm after treatment with solutions of active substances (Example 8); settings: for reduction in the colony-forming units: active substance in solution, final concentrations 0.25 μg/ml and 2.5 μg/ml, 20 hours anaerobic at 37° C.; for antimicrobial action in relation to Streptococcus mutans: solutions of the active substances at specific low concentrations (Example 8)
Protocol: In a THB nutrition medium, an over-night culture of Streptococcus mutans UA159 was cultivated anaerobically. That over-night culture was diluted to an optimum density (at 620 nm; OD620) of from 0.01 to 0.03 with THB (with addition of 0.5% (GN) of saccharose) so that a dilute bacterial suspension was obtained.
(§3) Stock solutions and corresponding diluted solutions of chlorohexidine, triclosan and carolacton were produced in methanol. […] of those solutions to be tested were introduced by pipette into microtitration plates; 9 parallel wells were used per substance and concentration. The methanol was evaporated (under a hood) and then 200 μl of the dilute bacterial suspension were added. The final concentrations of the active substances in the 200 μl of bacterial suspension were 0.25 μg/ml and 2.5 μg/ml. The plates were incubated anaerobically at 37° C. without agitation for 20 hours. Subsequently, the excess was removed by pipette, the biofilm was washed with a physiological cooking salt solution (0.85% of NaCl) and the biofilm was scraped off with a pipette. The biofilms from three parallel wells were suspended in 500 μl of PBS. From that biofilm suspension, a serial dilution in PBS was prepared. After each dilution step, vortexing was carried out for 1 minute. From each dilution, 50 μl was distributed three times on agar plates (TH medium). The plates were incubated for three days in the CO2 cupboard at 37° C., then the colony-forming units (CFU) were counted and the bacteria density in relation to […] of biofilm suspension was calculated.

[3] = test system: Streptococcus mutans UA159; experiment: Colony-forming units in the biofilm on tooth filling material test members (Example 9); settings: triclosan and chlorohexidine at a hundred times the concentration of carolacton
Protocol: as §3, §1, §2
In a THB nutrition medium, an over-night culture of Streptococcus mutans UA159 was produced under anaerobic conditions. […]

| Compound | inhibition at 25 µg/mL ([1]; Streptococcus mutans, UA159, active substance 25 μg/ml in hardened tooth filling material of example 2, 20 hours, green/red fluorescence quotient vs control) | biofilm inhibition (in words) [1] | reduction in the colony-forming units [2] | antimicrobial action in relation to Streptococcus mutans [2] | effect on number of CFU in the biofilm (in words) [3] | Biofilm inhibition [%] ([1]; active substance 2500 μg/ml in hardened tooth filling material similar to example 2, 20 hours, green/red fluorescence quotient vs control) | inhibition at 2500 µg/mL ([1]; Streptococcus mutans, UA159, 20 h, read-out: Biofilm inhibition [%]) |
| --- | --- | --- | --- | --- | --- | --- | --- |
| COC(CC(=O)O)C(C)C(=O)C(C)/C=C(\C)C1OC(=O)C(O)C(O)/C=C/C(C)CCCC1C (stereo not drawn) [carolacton] | 51% | very good biofilm inhibition | merely weakly reduces the number of colony-forming units | only has a weak antimicrobial action | powerful inhibiting effect |  |  |
| N=C(NCCCCCCNC(=N)NC(=N)Nc1ccc(Cl)cc1)NC(=N)Nc1ccc(Cl)cc1 [chlorohexidine] |  | scarcely influence the biofilm formation | very powerful reduction in the colony-forming units | very powerful antimicrobial activity | neither triclosan nor chlorohexidine, although used at a hundred times the concentration of carolacton, results in a powerful reduction of the number of CFU | 1% |  |
| Oc1cc(Cl)ccc1Oc1ccc(Cl)cc1Cl [triclosan] |  | scarcely influence the biofilm formation | very powerful reduction in the colony-forming units | very powerful antimicrobial activity | neither triclosan nor chlorohexidine, although used at a hundred times the concentration of carolacton, results in a powerful reduction of the number of CFU |  | 1% |
